In publication PMC3745430, “Novel Multiplexed Assay for Identifying SH2 Domain Antagonists of STAT Family Proteins” (PLoS ONE, 2013):

What was measured:
STAT3(136–705) [1] = target: T1, STAT3(136–705) (Homo sapiens, UniProt P40763); assay: Multiplexed Alpha assay, STAT3-SH2 binding (AlphaLISA); details: multiplexed binding assay; mean and SEM, three independent experiments; read-out: IC50 STAT3-SH2 binding (STAT3)
T1 construct: amino acids 136 to 705 of human STAT3 and 136 to 703 of human STAT5b; 6×His-tag (N); made in house; host or cells: E. coli BL-21 Star (DE3) pLysS co-transformed with pBirAcm
T1 sequence (P40763 136-705): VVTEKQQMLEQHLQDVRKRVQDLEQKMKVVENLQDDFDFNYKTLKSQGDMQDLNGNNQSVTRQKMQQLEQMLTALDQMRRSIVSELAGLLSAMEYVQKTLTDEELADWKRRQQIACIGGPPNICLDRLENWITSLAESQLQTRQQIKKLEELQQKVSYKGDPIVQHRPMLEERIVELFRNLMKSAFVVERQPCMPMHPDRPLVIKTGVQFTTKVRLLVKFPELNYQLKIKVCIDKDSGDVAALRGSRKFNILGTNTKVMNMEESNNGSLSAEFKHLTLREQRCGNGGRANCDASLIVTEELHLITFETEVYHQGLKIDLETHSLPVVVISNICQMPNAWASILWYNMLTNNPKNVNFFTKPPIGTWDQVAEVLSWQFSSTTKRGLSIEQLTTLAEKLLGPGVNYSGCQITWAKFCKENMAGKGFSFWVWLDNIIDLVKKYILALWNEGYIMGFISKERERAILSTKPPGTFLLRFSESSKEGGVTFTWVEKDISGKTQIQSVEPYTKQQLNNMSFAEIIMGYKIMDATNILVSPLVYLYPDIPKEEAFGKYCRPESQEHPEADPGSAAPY
Method: (§1) Both AlphaLISA and AlphaScreen are bead-based nonradioactive binding assay systems for detecting biomolecular interactions in a microplate format. The binding of the biological partners brings the donor and acceptor beads into close proximity, and AlphaLISA produces a specific signal around 615 nm and AlphaScreen emits a broad signal between 520 and 620 nm. The assays were performed in a final reaction volume of 25 µL of the assay buffer, which contained 10 mM HEPES-NaOH (pH 7.4), 50 mM NaCl, 1 mM EDTA (pH 8.0), 0.1% (w/v) NP-40, and 10 ng/µL (w/v) BSA in a 96-well microplate at 25°C. The labeled phosphotyrosyl (pTyr, pY) peptide probes were DIG-GpYLPQTV and FITC-GpYLVLDKW for STAT3 and STAT5b, respectively. In the single assay for STAT3 binding, 100 nM STAT3(136–705) protein was incubated with a test compound dissolved in DMSO for 30 min, and 1.0 nM DIG-GpYLPQTV was added and the mixture was incubated for 90 min. Streptavidin-coated donor beads (0.25 µg/well) and anti-DIG AlphaLISA acceptor beads (0.25 µg/well) were added and incubated for 90 min before the signals were measured with EnVison Xcite (PerkinElmer Life Sciences). In the single assay for STAT5b binding, 20 nM STAT5b(136–703) was incubated with a test compound for 30 min, and 1.0 nM FITC-GpYLVLDKW was added and incubated for 90 min. Streptavidin-coated donor beads (0.25 µg/well) and anti-FITC AlphaScreen acceptor beads (0.25 µg/well) were added and incubated for 90 min before the signals were measured with EnVison Xcite. In the multiplexed assay, 100 nM STAT3(136–705) and 20 nM STAT5b(136–703) were incubated with a test compound for 30 min, and 1.0 nM DIG-GpYLPQTV and 1.0 nM FITC-GpYLVLDKW were added and incubated for 90 min. Streptavidin-coated donor beads (0.50 µg/well), anti-DIG AlphaLISA (0.25 µg/well), and anti-FITC AlphaScreen acceptor beads (0.25 µg/well) were added and incubated for 90 min before the signals were measured with EnVison Xcite. AlphaLISA and AlphaScreen signals for measuring STAT3- and STAT5b-SH2 binding, respectively, can be separately measured by using a dysprosium 572 nm and a europium 615 nm narrow bandwidth filter. In inhibitory assays, these signals for the bound state and the free state were represented as 0% and 100% inhibition, respectively. The bound state was measured by incubating the labeled peptide and the protein without test compounds. The free state was measured by incubating the same mixture with an additional 10 µM non-labeled peptide contained phosphorylated tyrosine, which competitively binds to its corresponding protein. The IC50 value was calculated by Graph pad prism 4.0. The mean and the standard error (SEM) of IC50 values were determined from three independent experiments. The Z’ value was calculated using the equation Z’ = 1–(3×SD_bound +3×SD_free)/(Signal_bound – Signal_free). STAT1 and Grb2 binding assays were performed as described in previous report. In the assays for selectivity of Compound 1, 100 pM biotinylated DIG or 100 pM biotinylated FITC was incubated with 10 µM or 30 µM Compound 1 for 30 min. Streptavidin-coated donor beads (0.25 µg/well) and anti-DIG AlphaLISA acceptor beads (0.25 µg/well) or anti-FITC AlphaScreen acceptor beads (0.25 µg/well) were added and incubated for 90 min before the signals were measured with EnVison Xcite.

STAT5b(136–703) [2] = target: T2, STAT5b(136–703) (Homo sapiens, UniProt P51692); assay: Multiplexed Alpha assay, STAT5b-SH2 binding (AlphaScreen); details: multiplexed binding assay; mean and SEM, three independent experiments; read-out: IC50 STAT5b-SH2 binding (STAT5b)
T2 construct: 136 to 703 of human STAT5b; 6×His-tag (N); made in house; host or cells: E. coli BL-21 Star (DE3) pLysS co-transformed with pBirAcm
T2 sequence (P51692 136-703): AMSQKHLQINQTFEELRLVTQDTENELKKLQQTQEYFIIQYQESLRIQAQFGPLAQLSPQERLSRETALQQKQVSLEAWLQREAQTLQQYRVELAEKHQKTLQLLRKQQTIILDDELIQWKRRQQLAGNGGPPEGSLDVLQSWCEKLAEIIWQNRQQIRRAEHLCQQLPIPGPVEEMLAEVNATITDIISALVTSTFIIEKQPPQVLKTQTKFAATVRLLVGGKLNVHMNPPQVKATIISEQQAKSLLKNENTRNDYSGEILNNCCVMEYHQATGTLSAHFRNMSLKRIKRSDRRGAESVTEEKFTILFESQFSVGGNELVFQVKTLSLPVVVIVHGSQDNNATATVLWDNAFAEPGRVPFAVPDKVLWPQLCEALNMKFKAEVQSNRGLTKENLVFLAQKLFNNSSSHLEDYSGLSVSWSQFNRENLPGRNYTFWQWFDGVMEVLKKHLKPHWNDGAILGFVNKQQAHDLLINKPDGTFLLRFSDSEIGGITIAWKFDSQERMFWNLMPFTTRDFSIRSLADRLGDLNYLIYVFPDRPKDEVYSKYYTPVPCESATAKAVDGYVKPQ
Method: as §1

STAT3(136–705) [3] = target: T1, STAT3(136–705); assay: Single STAT3-SH2 binding assay (AlphaLISA); details: non-multiplexed single assay
Method: as §1

STAT5b(136–703) [4] = target: T2, STAT5b(136–703); assay: Single STAT5b-SH2 binding assay (AlphaScreen); details: non-multiplexed single assay
Method: as §1

Grb2-SH2 = target: T3, Grb2-SH2 (Homo sapiens, UniProt P62993); assay: Grb2-SH2 binding AlphaScreen assay; details: AlphaScreen assay (Figure S8A)
T3 construct: made in house
T3 sequence (P62993 whole entry): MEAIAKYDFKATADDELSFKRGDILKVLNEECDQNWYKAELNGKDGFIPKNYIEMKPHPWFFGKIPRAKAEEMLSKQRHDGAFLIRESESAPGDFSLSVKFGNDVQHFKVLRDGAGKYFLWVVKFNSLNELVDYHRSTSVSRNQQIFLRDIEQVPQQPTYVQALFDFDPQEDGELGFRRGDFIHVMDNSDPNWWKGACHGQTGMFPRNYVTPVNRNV
Method: Both AlphaLISA and AlphaScreen are bead-based nonradioactive binding assay systems for detecting biomolecular interactions in a microplate format. The binding of the biological partners brings the donor and acceptor beads into close proximity, and AlphaLISA produces a specific signal around 615 nm and AlphaScreen emits a broad signal between 520 and 620 nm. The assays were performed in a final reaction volume of 25 µL of the assay buffer, which contained 10 mM HEPES-NaOH (pH 7.4), 50 mM NaCl, 1 mM EDTA (pH 8.0), 0.1% (w/v) NP-40, and 10 ng/µL (w/v) BSA in a 96-well microplate at 25°C. […] Streptavidin-coated donor beads (0.25 µg/well) and anti-DIG AlphaLISA acceptor beads (0.25 µg/well) were added and incubated for 90 min before the signals were measured with EnVison Xcite (PerkinElmer Life Sciences). […] Streptavidin-coated donor beads (0.25 µg/well) and anti-FITC AlphaScreen acceptor beads (0.25 µg/well) were added and incubated for 90 min before the signals were measured with EnVison Xcite. […] Streptavidin-coated donor beads (0.50 µg/well), anti-DIG AlphaLISA (0.25 µg/well), and anti-FITC AlphaScreen acceptor beads (0.25 µg/well) were added and incubated for 90 min before the signals were measured with EnVison Xcite. […] The bound state was measured by incubating the labeled peptide and the protein without test compounds. […] The IC50 value was calculated by Graph pad prism 4.0. […]

[5] = test system: STAT3 nuclear translocation in HeLa cells; assay: STAT3 nuclear translocation assay in oncostatin M-stimulated HeLa cells; type: cell-based; details: for Fluorescent intensity of STAT3 in the nuclei, of the vehicle treatment: 1 h pretreatment, oncostatin M 30 ng/mL 10 min, HeLa
Method: The Cellomics STAT3 Activation Kit (Thermo Scientific) was used for the nuclear translocation assay. HeLa cells were incubated in a 96-well microplate for 24 h. Cells were pretreated with the test compounds for 1 hour, and 30 ng/mL (w/v) of oncostatin M was applied and the mixture was incubated for 10 min. The subsequent procedures were performed according to the manufacturer’s instructions. The cells were scanned with an ArrayScan VTI reader (Thermo Scientific), and analyzed with the Cytoplasm to Nucleus Translocation Application. The mean fluorescent values in the nuclei were calculated. The signals for vehicle treatment and no treatment (without oncostatin M) were represented as 100% and 0%, respectively, and the relative signal intensity was also calculated.

Compound O=C1C=CC(=NC2=C(Cl)C(=O)c3ccccc3C2=O)C=C1 [Compound 1] has an IC50 (STAT3(136–705) [1]) of 5 ± 0.073 µM, an IC50 (STAT5b(136–703) [2]) of 11 ± 0.27 µM and an IC50 (STAT3(136–705) [3]) of 3.8 µM. The IC50 (STAT5b(136–703) [4]) was 10 µM, the “Inhibition of Grb2-SH2 binding” value (Grb2-SH2) was “inhibited neither” and the “Fluorescent intensity of STAT3 in the nuclei, of the vehicle treatment” value ([5]; 60 µM) was 51%. The “Fluorescent intensity of STAT3 in the nuclei, of the vehicle treatment” value ([5]; 100 µM) was 31% and the “Effect on STAT3 nuclear translocation” value ([5]; HeLa cells, pretreatment before oncostatin M (Figure 6, Figure S9)) was “reduced the STAT3 nuclear translocation in a dose-dependent manner”.
